{
  "source": "patent EP0934300B1",
  "about": "“THE PREPARATION AND USE OF ORTHO-S[…] AS MATRIX METALLOPROTEINASE AND TACE INHIBITORS” (American Cyanamid Company, priority 1996, dated 1998)",
  "assay_type_in_all_cases": "biochemical",
  "key": {"[1]": {"target": "MMP-9 (Homo sapiens, UniProt P14780)", "sequence (P14780 94-707)": "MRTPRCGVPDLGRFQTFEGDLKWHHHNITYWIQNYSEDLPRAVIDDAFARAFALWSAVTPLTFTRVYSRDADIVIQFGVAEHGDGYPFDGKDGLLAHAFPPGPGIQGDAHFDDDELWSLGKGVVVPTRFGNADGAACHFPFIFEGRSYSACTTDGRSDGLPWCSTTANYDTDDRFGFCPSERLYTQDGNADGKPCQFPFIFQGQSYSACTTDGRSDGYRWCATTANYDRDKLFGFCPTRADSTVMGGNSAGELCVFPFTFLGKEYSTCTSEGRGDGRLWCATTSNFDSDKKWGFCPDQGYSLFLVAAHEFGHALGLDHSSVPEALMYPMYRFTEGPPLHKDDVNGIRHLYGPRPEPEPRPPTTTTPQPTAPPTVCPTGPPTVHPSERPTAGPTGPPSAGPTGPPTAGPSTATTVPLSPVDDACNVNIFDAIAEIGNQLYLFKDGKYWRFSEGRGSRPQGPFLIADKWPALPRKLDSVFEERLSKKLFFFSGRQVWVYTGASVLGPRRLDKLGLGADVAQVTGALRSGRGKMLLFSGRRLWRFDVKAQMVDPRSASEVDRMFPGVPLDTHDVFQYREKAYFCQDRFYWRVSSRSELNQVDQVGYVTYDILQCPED", "assay": "MMP-9 inhibition (thiopeptide or fluorescent peptide substrate assay)", "conditions": "for inhibition at 10 µM: concentration 10 µM", "protocol": "(§1) These assays are based on the cleavage of a thiopeptide substrates such as Ac-Pro-Leu-Gly(2mercapto-4 methyl-pentanoyl)-Leu-Gly-OEt by the matrix metalloproteinases MMP-1, MMP-13 (collagenases) or MMP-9 (gelatinase), which results in the release of a substrate product that reacts colorimetrically with DTNB (5,5'-dithiobis(2-nitro-benzoic acid)). The enzyme activity is measured by the rate of the color increase. The thiopeptide substrate is made up fresh as a 20 mM stock in 100% DMSO and the DTNB is dissolved in 100% DMSO as a 100 mM stock and stored in the dark at room temperature. Both the substrate and DTNB are diluted together to 1 mM with substrate buffer (50 mM HEPES pH 7.5, 5 mM CaCl2) before use. The stock of enzyme is diluted with assay buffer (50 mM HEPES, pH 7.5, 5 mM CaCl2, 0.02% Brij) to the desired final concentration.\n(§2) Alternatively, a fluorescent peptide substrate is used. In this assay, the peptide substrate contains a fluorescent group and a quenching group. Upon cleavage of the substrate by an MMP, the fluorescence that is generated is quantitated on the fluorescence plate reader. The assay is run in HCBC assay buffer (50mM HEPES, pH 7.0, 5 mM Ca^+2, 0.02% Brij, 0.5% Cysteine), with human recombinant MMP-1, MMP-9, or MMP-13. The substrate is dissolved in methanol and stored frozen in 1 mM aliquots. For the assay, substrate and enzymes are diluted in HCBC buffer to the desired concentrations. Compounds are added to the 96 well plate containing enzyme and the reaction is started by the addition of substrate. The reaction is read (excitation 340 nm, emission 444 nm) for 10 min. and the increase in fluorescence over time is plotted as a linear line.\n(§3) For either the thiopeptide or fluorescent peptide assays, the slope of the line is calculated and represents the reaction rate. The linearity of the reaction rate is confirmed (r^2 >0.85). The mean (x±sem) of the control rate is calculated and compared for statistical significance (p<0.05) with drug-treated rates using Dunnett's multiple comparison test."}, "[2]": {"target": "T1, MMP-1 (Homo sapiens, UniProt P03956)", "T1 sequence (P03956 100-469)": "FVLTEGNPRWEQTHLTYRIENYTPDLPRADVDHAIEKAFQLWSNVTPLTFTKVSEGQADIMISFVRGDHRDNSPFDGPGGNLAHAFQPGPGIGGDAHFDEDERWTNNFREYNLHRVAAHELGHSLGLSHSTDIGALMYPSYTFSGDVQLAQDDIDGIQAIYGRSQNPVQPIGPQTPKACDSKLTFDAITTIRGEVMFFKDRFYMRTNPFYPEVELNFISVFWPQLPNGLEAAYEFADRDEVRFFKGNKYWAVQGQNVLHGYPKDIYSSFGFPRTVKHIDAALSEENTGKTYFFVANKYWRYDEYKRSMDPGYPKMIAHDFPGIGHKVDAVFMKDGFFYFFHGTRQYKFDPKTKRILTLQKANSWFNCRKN", "assay": "MMP-1 inhibition (thiopeptide or fluorescent peptide substrate assay)", "conditions": "for inhibition at 1 µM: read-out: MMP-1 % inhibition, concentration 1 µM", "protocol": "as §1, §2, §3"}, "[3]": {"target": "MMP-13 (Homo sapiens, UniProt P45452)", "assay": "MMP-13 inhibition (thiopeptide or fluorescent peptide substrate assay)", "experimental": "Alternatively, a fluorescent peptide substrate is used. In this assay, the peptide substrate contains a fluorescent group and a quenching group. Upon cleavage of the substrate by an MMP, the fluorescence that is generated is quantitated on the fluorescence plate reader. […] The substrate is dissolved in methanol and stored frozen in 1 mM aliquots. For the assay, substrate and enzymes are diluted in HCBC buffer to the desired concentrations. Compounds are added to the 96 well plate containing enzyme and the reaction is started by the addition of substrate."}, "[4]": {"target": "T2, TACE (Homo sapiens, UniProt P78536)", "T2 construct": "purchased Immunex", "T2 sequence (P78536 215-824)": "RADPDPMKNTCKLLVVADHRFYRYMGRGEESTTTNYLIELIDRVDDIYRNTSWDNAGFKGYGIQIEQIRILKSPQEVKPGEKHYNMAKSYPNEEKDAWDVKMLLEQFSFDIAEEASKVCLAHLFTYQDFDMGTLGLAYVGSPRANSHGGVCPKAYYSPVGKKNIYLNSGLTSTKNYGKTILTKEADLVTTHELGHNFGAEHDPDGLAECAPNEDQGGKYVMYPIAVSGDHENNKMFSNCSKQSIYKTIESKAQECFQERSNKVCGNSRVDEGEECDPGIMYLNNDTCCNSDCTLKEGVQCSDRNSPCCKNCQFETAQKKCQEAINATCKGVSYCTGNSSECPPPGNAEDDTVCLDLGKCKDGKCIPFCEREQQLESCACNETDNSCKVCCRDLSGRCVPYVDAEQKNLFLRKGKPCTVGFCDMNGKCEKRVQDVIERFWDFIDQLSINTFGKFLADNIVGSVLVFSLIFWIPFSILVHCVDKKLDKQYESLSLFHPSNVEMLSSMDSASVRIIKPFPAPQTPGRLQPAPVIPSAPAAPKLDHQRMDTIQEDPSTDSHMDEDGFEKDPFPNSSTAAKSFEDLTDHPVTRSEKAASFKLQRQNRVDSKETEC", "assay": "TACE inhibition (fluorescent peptidyl substrate assay)", "experimental": "Using 96-well black microtiter plates, each well receives a solution composed of 10 µL TACE (Immunex, final concentration 1µg/mL), 70µL Tris buffer, pH 7.4 containing 10% glycerol (final concentration 10 mM), and 10 µL of test compound solution in DMSO (final concentration 1µM, DMSO concentration <1%) and incubated for 10 minutes at room temperature.\nThe reaction is read (excitation 340 nm, emission 420 nm) for 10 min. and the increase in fluorescence over time is plotted as a linear line. The slope of the line is calculated and represents the reaction rate."}},
  "data": [
    {"smiles": "COc1ccc(S(=O)(=O)N(Cc2ccccc2)c2ccsc2C(=O)NO)cc1", "note": "[Example 13, 3-[Benzyl-(4-methoxy-benzenesulfonyl)-amino]-thiophene-2-carboxylic acid hydroxyamide]", "values": [
      {"measurement": "inhibition at 10 µM", "setting": "[1]; read-out: MMP-9 % inhibition", "value": 57.3, "unit": "%"},
      {"measurement": "inhibition at 1 µM", "setting": "[2]", "value": 19.3, "unit": "%"}
    ]},
    {"smiles": "COc1ccc(S(=O)(=O)N(Cc2ccccc2)c2cscc2C(=O)NO)cc1", "note": "[Example 14, 4-[Benzyl-(4-methoxy-benzenesulfonyl)-amino]-thiophene-3-carboxylic acid hydroxyamide]", "values": [
      {"measurement": "inhibition at 10 µM", "setting": "[1]; read-out: MMP-9 % inhibition", "value": 66.8, "unit": "%"},
      {"measurement": "inhibition at 1 µM", "setting": "[2]", "value": 40, "unit": "%"}
    ]},
    {"smiles": "COc1ccc(S(=O)(=O)N(Cc2ccccc2)c2c(C(=O)NO)cnn2C)cc1", "note": "[Example 15, 5-[Benzyl-(4-methoxy-benzenesulfonyl)-amino]-1-methyl-1H-pyrazole-4-carboxylic acid hydroxyamide]", "values": [
      {"measurement": "IC50", "setting": "[1]", "value": 930, "unit": "nM"},
      {"measurement": "inhibition at 1 µM", "setting": "[2]", "value": 22.1, "unit": "%"}
    ]},
    {"smiles": "COc1ccc(S(=O)(=O)N(Cc2ccccc2)c2c(C)csc2C(=O)NO)cc1", "note": "[Example 16, 3-[Benzyl-(4-methoxy-benzenesulfonyl)-amino]-4-methyl-thiophene-2-carboxylic acid hydroxyamide]", "values": [
      {"measurement": "IC50", "setting": "[1]", "value": 104, "unit": "nM"}
    ]},
    {"smiles": "COc1ccc(S(=O)(=O)N(Cc2ccccc2)c2c(C(=O)NO)csc2Br)cc1", "note": "[Example 20, 4-[Benzyl-(4-methoxy-benzenesulfonyl)-amino]-5-bromo-thiophene-3-carboxylic acid hydroxyamide]", "values": [
      {"measurement": "IC50", "setting": "[1]", "value": 236, "unit": "nM"},
      {"measurement": "IC50", "setting": "[3]", "value": 472, "unit": "nM"},
      {"measurement": "IC50", "setting": "[2]", "value": 638, "unit": "nM"}
    ]},
    {"smiles": "C#Cc1scc(C(=O)NO)c1N(Cc1ccccc1)S(=O)(=O)c1ccc(OC)cc1", "note": "[Example 23, 4-[Benzyl-(4-methoxy-benzenesulfonyl)-amino]-5-ethynyl-thiophene-3-carboxylic acid hydroxyamide]", "values": [
      {"measurement": "inhibition at 300 µM", "setting": "[1]; read-out: MMP-9 % inhibition, concentration 300 µM", "value": 38.4, "unit": "%"},
      {"measurement": "inhibition at 300 µM", "setting": "[3]; read-out: MMP-13 % inhibition", "value": 35, "unit": "%"},
      {"measurement": "inhibition at 1 µM", "setting": "[2]", "value": 48.9, "unit": "%"}
    ]},
    {"smiles": "COc1ccc(S(=O)(=O)N(Cc2cccnc2)c2c(C(=O)NO)csc2Br)cc1", "note": "[Example 26, 5-Bromo-4-[(4-methoxy-benzenesulfonyl)-pyridin-3-ylmethyl-amino]-thiophene-3-carboxylic acid hydroxyamide]", "values": [
      {"measurement": "inhibition at 1 µM", "setting": "[4]; concentration 1 µM", "value": 42, "unit": "%"},
      {"measurement": "IC50", "setting": "[1]", "value": 70, "unit": "nM"},
      {"measurement": "IC50", "setting": "[2]", "value": 1000, "unit": "nM"}
    ]},
    {"smiles": "COc1ccc(S(=O)(=O)N(Cc2ccccc2)c2c(C(=O)NO)cc(OC)nc2OC)cc1", "note": "[Example 33, 3-[Benzyl-(4-methoxy-benzenesulfonyl)-amino]-N-hydroxy-2,6-dimethoxyisonicotinamide]", "values": [
      {"measurement": "IC50", "setting": "[4]", "value": 294, "unit": "nM"},
      {"measurement": "IC50", "setting": "[1]", "value": 15, "unit": "nM"},
      {"measurement": "IC50", "setting": "[3]", "value": 47, "unit": "nM"}
    ]}
  ]
}
